In patent publication US20250213593A1, “Use of Derivatives based on Sarsasapogenin Structure and Pharmaceutical Compositions thereof” (BEIJING PHYTOVENT PHARMACEUTICAL TECHNOLOGY CO., LTD., priority 2022, published 2025):

How the values were obtained:
[1] = test system: mice with ulcerative colitis induced by 3.0% DSS; assay: DSS mouse enteritis model; type: in vivo; conditions: 80 mpk oral gavage once a day, 9 days
From the text: 60 mice in good health were divided into 6 groups according to body weight, with 10 mice in each group: a normal control group, a model group, a positive drug group, and groups of different test products (Embodiment 13B, Embodiment 33, and Embodiment 34, at a dosage of 80 mpk each). In addition to the normal control group, the mice in other groups were administrated with a 3.0% DSS solution to drink freely, and consecutively modeled for 8 days. The normal control group was administrated with autoclaved filtered water to drink freely. The drug was administered on the day of modeling, and a test product was administered by oral gavage according to a designed dosage, once a day for 9 consecutive days. […] On the next day after the last administration, after deep anesthesia with CO2, cardiac blood and plasma were collected, and cryopreserved at −80° C. Subsequently, the abdominal cavity was dissected, the liver was removed and cryopreserved at −80° C. Finally, the entire colon tissue was removed, the colon length was measured, photographs were taken, and the colon content was washed with normal saline after dissection along the mesenteric side and weighed.

[2] = test system: OCI-LY3 (human diffuse large B-cell lymphoma cells); assay: Cell proliferation assay, OCI-LY3; type: cell-based; conditions: Homo sapiens, OCI-Ly3, 72 h
Protocol: (§1) • Experimental and analytical method: cells were inoculated into a 96-well cell culture plate with a lid at a maximum concentration of 10 μM for a test compound, and diluted in three folds to a series of test concentrations, and cells were incubated at 37° C., 5% CO2 for 72 h. The concentration of DMSO was 0.5%, 100 μl of medium was taken from each well. 100 μl of reagent (Celltitute Glo Assay Kit) was added to each well, and a flat plate was shaken on a plate shaker (protected from light) for 2 min. A culture plate was incubated (protected from light) at room temperature for 30 min. Chemiluminescence values were recorded by a multi-plate plate reader, and the experimental results were as follows:
(§2) U937 (histiocytic lymphoma cells), OCI-LY3 (human diffuse large B-cell lymphoma cells), U2932 (human diffuse large B-cell lymphoma cells), and HT cells (human mixed lymphoma cells) were analyzed in the table for experimental analysis of cell proliferation.

[3] = test system: U2932 (human diffuse large B-cell lymphoma cells); assay: Cell proliferation assay, U2932; type: cell-based; conditions: U2932, 72 h
Protocol: as §1, §2

[4] = test system: C57BL/6 mice modeled with MPTP; assay: PD mouse model (MPTP); type: in vivo; conditions: 80 mpk, 15 days; vs model group, T-test
Protocol: • Experimental and analytical method: mice of C57BL/6 strain were used in this experiment, which were divided into 5 groups, including a normal control group (no injection of MPTP), a model group (modeling with MPTP), and treatment groups of three small molecules (Embodiment 13B, Embodiment 25A, and Embodiment 25B). The drug was administered at the same time as modeling was made. The modeling lasted for 5 days, followed by 30 mpk intraperitoneal injection till lasting for 15 days, and lasted for 15 days at 80 mpk. At the endpoint, the brain was soaked and fixed in PFA after cardiac perfusion, and transferred to sucrose dehydration after complete fixation, and OCT embedding and sectioning were used for TH staining after complete dehydration. The detection indicator was the number of TH-positive cells in the substantia nigra. The more positive cells, the better the protection effect of small molecules against MPTP damage. • Results: there were 12 mice in each group, and the statistical results were shown in FIG. 50, T-test, **: p<0.01, #: p<0.05.

ICR mice = assay: Sleep of mice at subthreshold hypnotic dosage of sodium pentobarbital; type: in vivo, mouse; conditions: single oral gavage, high-, medium- and low-dosage; vs blank control
Protocol: After adaptive feeding of mice, 50 qualified animals were selected according to their body weights and divided into 5 groups by Excel complete randomization: a blank control group, a positive control group (Diazepam), and high-, medium- and low-dosage groups of test product, with 10 animals in each group. Animals in each group should be administrated with drug solutions and vehicles. After 1 h of administration, the animals in each group were intraperitoneally injected with a maximum subthreshold dosage of sodium pentobarbital (firstly, a pre-experiment was conducted to determine a maximum subthreshold hypnotic dosage of sodium pentobarbital).

[5] = test system: TDP43^A315T transgenic mice; conditions: 40 mpk from Day 60
From the text: Our experiments were divided into two groups, i.e., a model group and an administration group.

C[C@H]1CC[C@@]2(OC1)O[C@H]1C[C@@H]3[C@H](CC[C@H]4[C@H]3CC[C@@H]3C[C@H](NC(=O)CC(=O)N5CCN(CCN(C)C)CC5)CC[C@@]34C)[C@H]1[C@@H]2C [Embodiment 13b]
colon length [1]: could increase the weights and lengths of the colons | colon weight [1]: could increase the weights and lengths of the colons | general conditions of DSS colitis mice [1]: certain improvement effects | IC50 [2]: 4.39 µM | IC50 [3]: 0.72 µM | number of TH-positive cells in the substantia nigra [4]: statistically significant differences | sleep latency (ICR mice): could shorten the sleep latency of the mice, which had a certain dosage-response relationship, but no statistically significant difference | sleep time (ICR mice): could prolong the sleep time of the mice, but there was no statistically significant difference | survival time (in words) [5]: could effectively prolong the survival time | start of significant body weight decrease ([5]; model group Week 13): 16 Week | death median ([5]; model group about Day 120): 135 days | all died ([5]; model group about Day 140): 150 days | first deaths ([5]; model group from Day 90): > 100 days
